Measured values from patent US20140205566A1, “CYCLIC NUCLEUOSIDE DERIVATIVES AND USES THEREOF” (NOVARTIS AG, priority 2012, published 2014).
In brackets after ≈: the same amount, converted by molar mass.

Tests used:
Type in all cases: physicochemical
[1] = Solubility of crystalline Form I and Form II in various media
[2] = Bulk-state stability and thermal conversion of crystalline forms; settings: one week when stored at 50° C., 50° C./75% RH and 80° C.
[3] = Slurry competition studies of crystalline forms in 2-propanol; settings: 2-propanol at room temperature
[4] = Fasted state simulated intestinal fluid [pH 6.5]
[5] = Fed state simulated intestinal fluid [pH 5.8]

Structure (SMILES)	Solubility [1, 4]	Solubility [1, 5]	Solubility ([1]; Simulated gastric fluid [pH 2])	Solubility ([1]; Water)	Solubility ([1]; pH 1 (0.1N HCl))	Solubility ([1]; pH 3 citrate buffer)	Solubility ([1]; pH 4.65 acetate buffer)	Solubility ([1]; pH 6.8 phosphate buffer)	chemical and physical stability in bulk state [2]	relative thermodynamic stability (slurry competition) [3]
CCOC(=O)[C@H](C)N[P@@]1(=O)OC[C@H]2O[C@@H](n3cnc4c(OCC)nc(N)nc43)[C@](C)(F)[C@@H]2O1 [Form II, (S)-ethyl 2-(((2R,4aR,6R,7R,7aR)-6-(2-amino-6-ethoxy-9H-purin-9-yl)-7-fluoro-7-methyl-2-oxidotetrahydro-4H-furo[3,2-d][1,3,2]dioxaphosphinin-2-yl)amino)propanoate]	0.0888 mg/mL (≈ 182 µM)	0.0995 mg/mL (≈ 204 µM)	0.150 mg/mL (≈ 307 µM)	0.0676 mg/mL (≈ 138 µM)	0.246 mg/mL (≈ 504 µM)	0.0740 mg/mL (≈ 152 µM)	0.0557 mg/mL (≈ 114 µM)	0.0551 mg/mL (≈ 113 µM)	chemically and physically stable	thermodynamically more stable than Form I and III
CCOC(=O)[C@H](C)N[P@@]1(=O)OC[C@H]2O[C@@H](n3cnc4c(OCC)nc(N)nc43)[C@](C)(F)[C@@H]2O1 [Form I, (S)-ethyl 2-(((2R,4aR,6R,7R,7aR)-6-(2-amino-6-ethoxy-9H-purin-9-yl)-7-fluoro-7-methyl-2-oxidotetrahydro-4H-furo[3,2-d][1,3,2]dioxaphosphinin-2-yl)amino)propanoate]	0.632 [6.36] mg/ml	0.665 [5.80] mg/ml	0.681 [2.11] mg/ml	0.799 [3.82] mg/ml	1.249 [1.39] mg/ml	0.816 [3.04] mg/ml	0.687 [4.67] mg/ml	0.794 [6.70] mg/ml	chemically and physically stable	–
